Laboratory results: patent US20170029388A1, “Treatment of Neurodegenerative Diseases with Asparagine Endopeptidase (AEP) Inhibitors and Compositions Related Thereto” (INTERCONTINENTAL GREAT BRANDS LLC, priority 2014, published 2017)

Columns and labels:
AEP [1] = biological target: T1, AEP (Homo sapiens, UniProt Q99538); test: DTT reversibility assay; type: biochemical; settings: 5x IC50 of compound, 10 mM DTT or L-cysteine
T1 construct: tested with purified active AEP, IC50 values for the top 8 candidates were found; purchased Sino Biological
T1 sequence (Q99538 18-323 limits assumed): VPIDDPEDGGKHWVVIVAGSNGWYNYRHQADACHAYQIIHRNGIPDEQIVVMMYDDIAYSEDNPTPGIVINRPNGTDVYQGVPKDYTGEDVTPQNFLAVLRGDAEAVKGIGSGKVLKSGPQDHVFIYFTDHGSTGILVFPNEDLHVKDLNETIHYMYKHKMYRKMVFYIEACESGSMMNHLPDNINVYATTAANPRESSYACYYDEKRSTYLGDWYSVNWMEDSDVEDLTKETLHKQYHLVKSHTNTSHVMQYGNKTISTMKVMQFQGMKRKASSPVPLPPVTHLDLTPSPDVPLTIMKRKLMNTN
Description: AEP was reacted with specified inhibitor, after 15 min 10 mM DTT or L-cysteine was added to the reaction and the fluorescent signal was read for an additional 15 min. At the end of the second 15 min incubation, the percentage of product formed in the presence of each compound was determined in comparison to the DMSO control reaction.
Although it is not intended that embodiments of this disclosure be limited by any particular mechanism, to gain additional insight into the mechanism utilized by the inhibitors for abrogation of AEP activity, their reversibility in the presence of free thiols was determined. The addition of a strong reducing agent, such as DTT, or a weaker reducing agent, L-cysteine, to an inhibited reaction can be used to out-compete the inhibitory agent and restore catalytic activity to an enzyme with an active-site thiol residue. Here, a similar approach was used by adding a reducing agent, either DTT or L-cysteine, to a reaction, in which AEP had been incubated with a specified inhibitor, in an attempt to reverse the effects of the inhibitor. […] For compounds BB1 and 38, this increase in enzymatic activity may be due to the reduction of a disulfide linkage between the inhibitor and the enzyme, since these compounds contain thiols. Compound 10 contains a thiocyanate and may undergo nucleophilic attack by the enzyme's active-site thiolate to form a thioimidate enzyme-inhibitor complex. Under acidic conditions, this complex is reducible by either a strong reducing agent, such as DTT, or the weaker L-cysteine.
Simultaneously, 10 mM (final concentration) dithiothreitol (DTT) or L-cysteine was added to each reaction and incubated for an additional 15 min. At the end of the second 15 min incubation time, the fluorescence was measured for each sample. The amount of product formed in the presence of DMSO was used to determine the percentage of AEP activity in the presence of each drug.

AEP [2] = biological target: T1, AEP; test: Enzyme inhibition assays (steady-state kinetics, Z-AAN-AMC); type: biochemical; settings: for mode of inhibition: Michaelis-Menten plots; for inhibition constant KI: competitive inhibition fit
Description: KI values for each inhibitor were determined by global fits to the competitive inhibition equation. C. Time course inactivation assays were used to generate progress curves, depicting product formation as a function of time. […] E. Time course inactivation assays were used to generate progress curves, depicting product formation as a function of time. Pseudo first-order rate constants were obtained at each concentration of compound BB1. F. Re-plot of the pseudo first-order rate constants, kobs, vs. the concentration of compound BB1.
To continue to assess the mechanism utilized by the compounds to inhibit AEP, the inhibition kinetics were determined for compound, 11, as well as compound BB1, in an attempt to confirm that the thiol moiety is competitively inhibiting the enzyme. […] The resulting Michaelis-Menten plots for each compound seem be indicative of competitive inhibition. […] Since BB1 contains a thiol group, it can form a disulfide bond with the active-site cysteine of AEP. […] Additionally, plotting the pseudo-first-order rate constants of inhibition, kobs, which were determined from the progress curves, yielded a hyperbolic curve, consistent with a two-step mechanism of inactivation (FIG. 6D). […] However, the kobs versus inhibitor concentration plot yielded a straight line, maybe due to the rapid disulfide formation reaction (FIG. 6F).
To determine the inhibition constants and the mechanism by which compounds BB1, 11 and 38 inhibit AEP, the steady-state kinetic parameters for the hydrolysis of the peptide substrate, Z-AAN-AMC, was determined in the absence or presence of increasing concentrations of inhibitor. In these assays, specified concentrations of the inhibitor were pre-incubated with substrate for 10 min at 37° C., then 50 nM AEP was added to initiate the reaction, which was quenched after 10 min. The RFU values of the reaction product were converted to micromolar values with an AMC standard curve and the final reaction rates were plotted against substrate concentration and globally fit to equations representative of competitive inhibition (eq 1), noncompetitive inhibition (eq 2), mixed inhibition (eq 3) and uncompetitive inhibition (eq 4) using a nonlinear least fit squares approach by GraFit version 5.0.11. […]
ν=Vmax[S]/([S]+Km(1+[1]/Kis)) (eq 1), ν=Vmax[S]/([S](1+[1]/Kl)+Km(1+[1]/Ki)) (eq 2), ν=Vmax[S]/([S](1+[1]/Kii)+Km([…])) (eq 3), ν=Vmax[S]/([S](1+[1]/Kii)+Km) (eq 4).
In the equations, Kii is the intercept Ki, and Kis is the slope Ki. The mode of the inhibition induced by the compounds on AEP was determined by the best fit of the data to equations 1 -4. Visual inspection of the fits, and a comparison of the standard errors, was used to confirm these assignments.

CYP1A2 = biological target: T2, CYP1A2 (Homo sapiens, UniProt P05177); test: CYP inhibition screening, CYP1A2; type: in vitro ADME
T2 sequence (P05177 1-516): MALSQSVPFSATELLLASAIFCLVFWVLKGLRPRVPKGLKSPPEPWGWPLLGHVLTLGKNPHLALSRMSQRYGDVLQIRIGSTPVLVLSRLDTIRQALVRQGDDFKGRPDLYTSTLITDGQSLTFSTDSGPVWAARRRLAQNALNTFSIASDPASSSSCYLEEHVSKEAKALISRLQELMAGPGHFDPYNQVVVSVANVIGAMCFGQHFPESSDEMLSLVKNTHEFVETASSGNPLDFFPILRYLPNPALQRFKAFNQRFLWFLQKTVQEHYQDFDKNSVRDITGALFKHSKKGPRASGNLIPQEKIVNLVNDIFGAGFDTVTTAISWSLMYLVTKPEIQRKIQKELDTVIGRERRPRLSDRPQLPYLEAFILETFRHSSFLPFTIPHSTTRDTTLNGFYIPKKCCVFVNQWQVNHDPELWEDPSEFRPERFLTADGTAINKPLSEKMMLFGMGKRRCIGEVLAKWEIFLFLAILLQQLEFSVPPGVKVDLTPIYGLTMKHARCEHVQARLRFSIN

[3] = Liver microsomal stability, mouse; settings: mouse liver microsomes
CYP2C19 = CYP2C19 (Homo sapiens, UniProt P33261); test: CYP inhibition screening, CYP2C19; type: in vitro ADME
[4] = Liver microsomal stability, human; settings: human liver microsomes; for Mean Remaining Parent (with NADPH): 30 min of incubation

Sequence of CYP2C19 (P33261 whole entry): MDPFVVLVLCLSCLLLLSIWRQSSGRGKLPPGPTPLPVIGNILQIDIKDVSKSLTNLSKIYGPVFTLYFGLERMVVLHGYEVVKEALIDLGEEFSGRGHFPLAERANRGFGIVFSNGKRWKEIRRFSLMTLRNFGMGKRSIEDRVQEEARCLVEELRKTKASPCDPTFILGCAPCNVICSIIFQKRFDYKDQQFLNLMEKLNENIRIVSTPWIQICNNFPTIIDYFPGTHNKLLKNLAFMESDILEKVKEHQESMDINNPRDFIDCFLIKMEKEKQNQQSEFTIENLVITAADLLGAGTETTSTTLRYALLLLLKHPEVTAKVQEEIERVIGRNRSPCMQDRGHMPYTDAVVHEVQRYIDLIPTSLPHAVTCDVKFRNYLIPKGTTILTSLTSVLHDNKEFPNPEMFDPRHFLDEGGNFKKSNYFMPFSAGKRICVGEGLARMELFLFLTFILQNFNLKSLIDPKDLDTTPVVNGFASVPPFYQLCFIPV

| Structure (SMILES) | AEP activity after addition of reducing agent (reversibility) (AEP [1]) | mode of inhibition (AEP [2]) | inhibition constant KI (AEP [2]) | CYP inhibition, CYP1A2 (CYP1A2; test concentration 3 μM) [%] | CYP inhibition, CYP1A2 (CYP1A2; test concentration 10 μM) [%] | Mean Remaining Parent (NADPH-free) [3] [%] | Mean Remaining Parent (with NADPH) [3] [%] | CYP inhibition, CYP2C19 (CYP2C19; test concentration 3 μM) [%] | CYP inhibition, CYP2C19 (CYP2C19; test concentration 10 μM) [%] | Mean Remaining Parent (NADPH-free) [4] [%] | Mean Remaining Parent (with NADPH) [4] [%] |
| --- | --- | --- | --- | --- | --- | --- | --- | --- | --- | --- | --- |
| Sc1nnc(Nc2ccccc2)s1 [Compound BB1] | regained a substantial amount of activity | competitive inhibitors | nanomolar-range |  |  |  |  |  |  |  |  |
| Nc1ccc(N2CCOCC2)c2nonc12 [Compound 11] |  | competitive inhibitors | nanomolar-range | 13.1 | 37.0 | 103 | 20 | 4.4 | 6.8 | 93 | 76 |
| Cn1c(=O)[nH]c(=O)c2c1nc(S)n2CC(O)COc1ccc(Cl)cc1 (stereo not shown) [Compound 38] | regained a substantial amount of activity |  |  | −7.6 | 10.5 | 99 | 98 | −12.0 | 9.5 | 107 | 88 |
